Experimental data: PubChem BioAssay (NCI)
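Dose response: 5 concentrations. Exposure: 48 h. Format: 96-well plates. Endpoint: linear interpolation; highest concentration if not reached. GI50 marks 50% less growth. TGI is the concentration that stops growth completely.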

Columns and labels:
Assay in all cases: DTP human tumour cell line panel, 48 h
UACC-257 melanoma = system: UACC-257 melanoma
OVCAR-3 ovarian = system: OVCAR-3 ovarian
SR leukemia = system: SR leukemia
K-562 leukemia = system: K-562 leukemia
MALME-3M melanoma = system: MALME-3M melanoma
MOLT-4 leukemia = system: MOLT-4 leukemia
TK-10 renal = system: TK-10 renal
RPMI-8226 leukemia = system: RPMI-8226 leukemia
NCI-H460 lung = system: NCI-H460 lung
HL-60(TB) leukemia = system: HL-60(TB) leukemia
HCC-2998 colon = system: HCC-2998 colon
SK-MEL-2 melanoma = system: SK-MEL-2 melanoma
NCI-H522 lung = system: NCI-H522 lung
SN12C renal = system: SN12C renal
786-0 renal = system: 786-0 renal
CAKI-1 renal = system: CAKI-1 renal
HCT-116 colon = system: HCT-116 colon
NCI-H226 lung = system: NCI-H226 lung
SK-MEL-28 melanoma = system: SK-MEL-28 melanoma
NCI/ADR-RES ovarian = system: NCI/ADR-RES ovarian
A549 NSCLC = system: A549 NSCLC
SW-620 colon = system: SW-620 colon
BT-549 breast = system: BT-549 breast
OVCAR-8 ovarian = system: OVCAR-8 ovarian
M14 melanoma = system: M14 melanoma
LOX IMVI melanoma = system: LOX IMVI melanoma
HOP-62 NSCLC = system: HOP-62 NSCLC
HS 578T breast = system: HS 578T breast
COLO 205 colon = system: COLO 205 colon
MDA-MB-231 breast = system: MDA-MB-231 breast
RXF 393 renal = system: RXF 393 renal
SNB-19 CNS = system: SNB-19 CNS
U251 CNS = system: U251 CNS
UO-31 renal = system: UO-31 renal
SF-268 CNS = system: SF-268 CNS
HCT-15 colon = system: HCT-15 colon
SNB-75 CNS = system: SNB-75 CNS
MCF7 breast = system: MCF7 breast
SF-539 CNS = system: SF-539 CNS
DU-145 prostate = system: DU-145 prostate
NCI-H23 lung = system: NCI-H23 lung
A498 renal = system: A498 renal
SK-MEL-5 melanoma = system: SK-MEL-5 melanoma
MDA-MB-435 = system: MDA-MB-435
UACC-62 melanoma = system: UACC-62 melanoma
PC-3 prostate = system: PC-3 prostate
HT29 colon = system: HT29 colon
SF-295 CNS = system: SF-295 CNS
ACHN renal = system: ACHN renal
HOP-92 NSCLC = system: HOP-92 NSCLC
OVCAR-4 ovarian = system: OVCAR-4 ovarian
EKVX NSCLC = system: EKVX NSCLC
IGROV1 ovarian = system: IGROV1 ovarian
SK-OV-3 ovarian = system: SK-OV-3 ovarian
KM12 colon = system: KM12 colon
T-47D breast = system: T-47D breast
OVCAR-5 ovarian = system: OVCAR-5 ovarian
CCRF-CEM leukemia = system: CCRF-CEM leukemia

C#C[C@]1(O)CC[C@H]2[C@@H]3CC=C4c5sc(Nc6cccc(Cl)n6)nc5CC[C@]4(C)[C@H]3CC[C@@]21C
GI50 (UACC-257 melanoma): 491 nM
TGI (UACC-257 melanoma): 1820 nM
GI50 (OVCAR-3 ovarian): 1450 nM
TGI (OVCAR-3 ovarian): 3130 nM
GI50 (SR leukemia): 273 nM
TGI (SR leukemia): 1020 nM
GI50 (K-562 leukemia): 327 nM
TGI (K-562 leukemia): 1710 nM
GI50 (MALME-3M melanoma): 1060 nM
TGI (MALME-3M melanoma): 2620 nM
GI50 (MOLT-4 leukemia): 301 nM
TGI (MOLT-4 leukemia): 1170 nM
GI50 (TK-10 renal): 1790 nM
TGI (TK-10 renal): 4060 nM
GI50 (RPMI-8226 leukemia): 208 nM
TGI (RPMI-8226 leukemia): 618 nM
GI50 (NCI-H460 lung): 672 nM
TGI (NCI-H460 lung): 1930 nM
GI50 (HL-60(TB) leukemia): 335 nM
TGI (HL-60(TB) leukemia): 1570 nM
GI50 (HCC-2998 colon): 1880 nM
TGI (HCC-2998 colon): 4100 nM
GI50 (SK-MEL-2 melanoma): 1190 nM
TGI (SK-MEL-2 melanoma): 3340 nM
GI50 (NCI-H522 lung): 1710 nM
TGI (NCI-H522 lung): 3610 nM
GI50 (SN12C renal): 1600 nM
TGI (SN12C renal): 3380 nM
GI50 (786-0 renal): 226 nM
TGI (786-0 renal): 610 nM
GI50 (CAKI-1 renal): 819 nM
TGI (CAKI-1 renal): 2450 nM
GI50 (HCT-116 colon): 565 nM
TGI (HCT-116 colon): 1920 nM
GI50 (NCI-H226 lung): 1600 nM
TGI (NCI-H226 lung): 4130 nM
GI50 (SK-MEL-28 melanoma): 226 nM
TGI (SK-MEL-28 melanoma): 597 nM
GI50 (NCI/ADR-RES ovarian): 1820 nM
TGI (NCI/ADR-RES ovarian): 5570 nM
GI50 (A549 NSCLC): 1200 nM
TGI (A549 NSCLC): 3550 nM
GI50 (SW-620 colon): 1190 nM
TGI (SW-620 colon): 2570 nM
GI50 (BT-549 breast): 903 nM
TGI (BT-549 breast): 2360 nM
GI50 (OVCAR-8 ovarian): 1460 nM
TGI (OVCAR-8 ovarian): 3630 nM
GI50 (M14 melanoma): 491 nM
TGI (M14 melanoma): 1780 nM
GI50 (LOX IMVI melanoma): 705 nM
TGI (LOX IMVI melanoma): 1980 nM
GI50 (HOP-62 NSCLC): 796 nM
TGI (HOP-62 NSCLC): 2230 nM
GI50 (HS 578T breast): 338 nM
TGI (HS 578T breast): 1550 nM
GI50 (COLO 205 colon): 1690 nM
TGI (COLO 205 colon): 3400 nM
GI50 (MDA-MB-231 breast): 1060 nM
TGI (MDA-MB-231 breast): 2690 nM
GI50 (RXF 393 renal): 122 nM
TGI (RXF 393 renal): 349 nM
GI50 (SNB-19 CNS): 1170 nM
TGI (SNB-19 CNS): 2820 nM
GI50 (U251 CNS): 428 nM
TGI (U251 CNS): 2050 nM
GI50 (UO-31 renal): 576 nM
TGI (UO-31 renal): 1870 nM
GI50 (SF-268 CNS): 1540 nM
TGI (SF-268 CNS): 4650 nM
GI50 (HCT-15 colon): 672 nM
TGI (HCT-15 colon): 2440 nM
GI50 (SNB-75 CNS): 815 nM
TGI (SNB-75 CNS): 6540 nM
GI50 (MCF7 breast): 550 nM
TGI (MCF7 breast): 2400 nM
GI50 (SF-539 CNS): 204 nM
TGI (SF-539 CNS): 636 nM
GI50 (DU-145 prostate): 2170 nM
TGI (DU-145 prostate): 9200 nM
GI50 (NCI-H23 lung): 1610 nM
TGI (NCI-H23 lung): 4770 nM
GI50 (A498 renal): 897 nM
TGI (A498 renal): 2250 nM
GI50 (SK-MEL-5 melanoma): 1650 nM
TGI (SK-MEL-5 melanoma): 3120 nM
GI50 (MDA-MB-435): 1010 nM
TGI (MDA-MB-435): 2730 nM
GI50 (UACC-62 melanoma): 389 nM
TGI (UACC-62 melanoma): 1500 nM
GI50 (PC-3 prostate): 460 nM
TGI (PC-3 prostate): 3110 nM
GI50 (HT29 colon): 1430 nM
TGI (HT29 colon): 3600 nM
GI50 (SF-295 CNS): 205 nM
TGI (SF-295 CNS): 529 nM
GI50 (ACHN renal): 856 nM
TGI (ACHN renal): 2930 nM
GI50 (HOP-92 NSCLC): 1200 nM
TGI (HOP-92 NSCLC): 2660 nM
GI50 (OVCAR-4 ovarian): 2110 nM
TGI (OVCAR-4 ovarian): 8600 nM
GI50 (EKVX NSCLC): 1290 nM
TGI (EKVX NSCLC): 6740 nM
GI50 (IGROV1 ovarian): 1610 nM
TGI (IGROV1 ovarian): 4470 nM
GI50 (SK-OV-3 ovarian): 867 nM
TGI (SK-OV-3 ovarian): 2710 nM
GI50 (KM12 colon): 1250 nM
TGI (KM12 colon): 3150 nM
GI50 (T-47D breast): 1840 nM
TGI (T-47D breast): 5310 nM
GI50 (OVCAR-5 ovarian): 1560 nM
TGI (OVCAR-5 ovarian): 3350 nM
GI50 (CCRF-CEM leukemia): 430 nM
TGI (CCRF-CEM leukemia): > 21100 nM
